7 molecules from ChEMBL document CHEMBL1201862, “PubChem BioAssay data set” (2004) can be followed below.

Activity calls are given as the source filed them.

Assay [1] deals with T1, Lysine-specific demethylase 4C (Homo sapiens, UniProt Q9H3R0).
T1 sequence (Q9H3R0 whole entry): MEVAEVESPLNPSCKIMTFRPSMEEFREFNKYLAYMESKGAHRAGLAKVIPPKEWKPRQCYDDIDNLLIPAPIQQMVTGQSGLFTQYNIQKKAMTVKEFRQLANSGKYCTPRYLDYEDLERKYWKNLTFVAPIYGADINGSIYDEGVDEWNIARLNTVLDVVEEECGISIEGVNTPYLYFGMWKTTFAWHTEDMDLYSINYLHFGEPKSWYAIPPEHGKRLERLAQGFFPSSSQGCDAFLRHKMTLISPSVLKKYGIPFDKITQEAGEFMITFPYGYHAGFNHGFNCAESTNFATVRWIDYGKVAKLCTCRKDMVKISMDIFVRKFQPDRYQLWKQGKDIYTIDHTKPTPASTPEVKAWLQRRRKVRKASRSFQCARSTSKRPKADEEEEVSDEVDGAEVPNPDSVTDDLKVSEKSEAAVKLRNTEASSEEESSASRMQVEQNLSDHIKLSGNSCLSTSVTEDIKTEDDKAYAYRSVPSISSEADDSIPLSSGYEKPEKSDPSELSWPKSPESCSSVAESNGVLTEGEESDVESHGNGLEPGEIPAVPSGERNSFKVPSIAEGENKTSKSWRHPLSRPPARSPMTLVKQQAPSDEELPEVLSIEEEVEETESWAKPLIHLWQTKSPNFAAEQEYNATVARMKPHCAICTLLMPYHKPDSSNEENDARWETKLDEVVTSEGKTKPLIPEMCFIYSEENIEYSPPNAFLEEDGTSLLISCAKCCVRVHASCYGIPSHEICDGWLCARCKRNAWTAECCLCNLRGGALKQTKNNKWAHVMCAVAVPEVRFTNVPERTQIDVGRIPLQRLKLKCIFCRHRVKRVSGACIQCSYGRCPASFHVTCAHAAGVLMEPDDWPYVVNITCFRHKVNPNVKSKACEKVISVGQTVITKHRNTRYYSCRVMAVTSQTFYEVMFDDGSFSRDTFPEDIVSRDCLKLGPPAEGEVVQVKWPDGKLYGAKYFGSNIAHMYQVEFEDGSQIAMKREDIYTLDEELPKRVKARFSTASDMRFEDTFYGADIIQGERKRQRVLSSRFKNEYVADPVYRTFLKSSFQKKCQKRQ
Briefly: GASC-1 (JMJD2C) histone demethylase inhibitors, dose response, biochemical, DELFIA europium, cherry-picked samples (AID 488835). It counts as functional.

In assay [2] the target is T2, Microphthalmia-associated transcription factor (Homo sapiens, UniProt O75030).
T2 sequence (O75030 whole entry): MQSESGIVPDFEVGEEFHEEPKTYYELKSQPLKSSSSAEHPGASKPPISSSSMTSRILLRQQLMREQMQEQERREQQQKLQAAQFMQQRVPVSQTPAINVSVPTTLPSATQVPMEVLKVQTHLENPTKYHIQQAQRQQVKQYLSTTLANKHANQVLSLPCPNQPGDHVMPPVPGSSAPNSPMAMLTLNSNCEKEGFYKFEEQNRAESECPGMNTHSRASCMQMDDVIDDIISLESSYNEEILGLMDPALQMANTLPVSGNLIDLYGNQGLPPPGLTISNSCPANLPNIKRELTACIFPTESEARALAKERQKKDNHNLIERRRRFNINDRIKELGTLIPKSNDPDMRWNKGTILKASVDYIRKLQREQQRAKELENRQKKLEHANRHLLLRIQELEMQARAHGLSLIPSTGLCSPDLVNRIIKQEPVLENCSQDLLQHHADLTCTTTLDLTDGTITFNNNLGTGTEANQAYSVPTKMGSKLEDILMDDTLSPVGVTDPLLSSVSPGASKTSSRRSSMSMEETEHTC
Briefly: TRPM1 promoter luciferase signal decrease, dose response, MITF inhibitor project, cell-based, SK-MEL-5, cherry-picked, set 3 (AID 493073).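 Note: SK-MEL-5 melanoma cells with luciferase driven by the MITF target TRPM1 promoter.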 It counts as functional.

Assay [3] in a line: non-specific cell cytotoxicity, dose response, cytotoxicity control for PAX8 inhibitor project, plate reader, dry powder samples (AID 743021). It counts as functional, cell-based.
In assay [4] the target is Paired box protein Pax-8 (Homo sapiens, UniProt Q06710). Briefly: inhibitors of PAX8-driven TPO luciferase reporter, dose response, RMG-I cells, cherry-pick (AID 687027).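 Note: luciferase reporter driven by Pax8 target thyroperoxidase promoter measured by SteadyGlo luminescence.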 The assay is classed as functional, cell-based.
Paired box protein Pax-8, sequence (Q06710 whole entry): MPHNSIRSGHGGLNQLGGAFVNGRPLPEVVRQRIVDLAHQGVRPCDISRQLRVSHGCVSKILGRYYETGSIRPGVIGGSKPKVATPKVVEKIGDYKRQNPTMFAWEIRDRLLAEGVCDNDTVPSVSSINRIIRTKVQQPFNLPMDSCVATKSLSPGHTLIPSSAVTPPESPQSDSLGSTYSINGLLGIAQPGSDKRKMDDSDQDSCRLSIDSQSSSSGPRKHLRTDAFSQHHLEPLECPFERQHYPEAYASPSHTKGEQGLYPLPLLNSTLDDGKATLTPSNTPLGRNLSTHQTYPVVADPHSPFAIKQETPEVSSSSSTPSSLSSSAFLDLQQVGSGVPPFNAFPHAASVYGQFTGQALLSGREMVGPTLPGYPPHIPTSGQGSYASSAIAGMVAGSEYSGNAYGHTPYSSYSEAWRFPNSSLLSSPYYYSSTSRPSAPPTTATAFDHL
In assay [5] the test system is HT-1080. Briefly: cytotoxicity in HT1080 fibrosarcoma cells, cell-based, fluorescence readout (AID 620). It counts as functional. The following applies: Homo sapiens.
In assay [6] the target is Luciferin 4-monooxygenase (Photinus pyralis, UniProt P08659). Briefly: Counter Screen for Luciferase-based Assay Positives. [Related pubchem assays: 620, 618, 411 ]. (In general: The purpose of a counterscreen is to sort out artefacts and off-target activity.)
Luciferin 4-monooxygenase, sequence (P08659 whole entry): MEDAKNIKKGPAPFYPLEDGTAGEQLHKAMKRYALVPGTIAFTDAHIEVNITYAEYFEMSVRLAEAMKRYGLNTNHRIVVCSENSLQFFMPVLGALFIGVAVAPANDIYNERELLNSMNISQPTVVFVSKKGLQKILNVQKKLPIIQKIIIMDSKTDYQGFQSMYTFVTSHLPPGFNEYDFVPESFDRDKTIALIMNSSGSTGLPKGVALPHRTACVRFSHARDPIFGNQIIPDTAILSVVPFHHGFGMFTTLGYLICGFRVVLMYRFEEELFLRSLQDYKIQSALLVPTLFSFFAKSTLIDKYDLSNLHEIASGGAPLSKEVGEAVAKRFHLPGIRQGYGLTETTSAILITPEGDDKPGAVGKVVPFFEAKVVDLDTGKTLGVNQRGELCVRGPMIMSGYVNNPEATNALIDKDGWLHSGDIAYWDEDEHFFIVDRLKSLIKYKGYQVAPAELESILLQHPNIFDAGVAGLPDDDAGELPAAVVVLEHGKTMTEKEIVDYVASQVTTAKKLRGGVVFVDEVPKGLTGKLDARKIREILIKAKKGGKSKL
Assay [7] has as its target T3, Alkaline phosphatase, tissue-nonspecific isozyme (Homo sapiens, UniProt P05186).
T3 sequence (P05186 whole entry): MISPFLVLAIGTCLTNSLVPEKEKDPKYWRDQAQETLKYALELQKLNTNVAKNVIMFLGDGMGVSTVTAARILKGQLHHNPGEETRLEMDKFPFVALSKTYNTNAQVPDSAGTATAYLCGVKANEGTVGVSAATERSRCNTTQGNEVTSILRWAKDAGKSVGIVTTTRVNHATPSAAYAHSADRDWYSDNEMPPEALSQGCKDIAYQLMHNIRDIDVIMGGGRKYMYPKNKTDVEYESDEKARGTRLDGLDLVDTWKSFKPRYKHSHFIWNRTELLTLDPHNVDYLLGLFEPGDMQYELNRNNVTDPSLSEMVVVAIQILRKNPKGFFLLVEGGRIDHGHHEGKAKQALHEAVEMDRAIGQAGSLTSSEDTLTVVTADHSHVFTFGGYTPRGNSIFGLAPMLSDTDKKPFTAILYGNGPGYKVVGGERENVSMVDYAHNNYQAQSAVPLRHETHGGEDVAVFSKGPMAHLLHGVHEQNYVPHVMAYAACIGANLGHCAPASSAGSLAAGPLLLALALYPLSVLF
Briefly: TNAP enzyme inhibition by screening hits, dose response, selectivity assay for mouse IAP inhibitor project, biochemical, human TNAP, uHTS hits (AID 488906). It counts as functional.

Assay [8] concerns the target Intestinal-type alkaline phosphatase (Mus musculus, UniProt P24822). Briefly: PubChem AID 488785. It counts as functional.
In assay [9] the target is Intestinal-type alkaline phosphatase (Homo sapiens, UniProt P09923). Briefly: inhibition of human intestinal alkaline phosphatase – biochemical, dose response (AID 488876). The assay is classed as functional.
Intestinal-type alkaline phosphatase (Homo sapiens, UniProt P09923), sequence (P09923 whole entry): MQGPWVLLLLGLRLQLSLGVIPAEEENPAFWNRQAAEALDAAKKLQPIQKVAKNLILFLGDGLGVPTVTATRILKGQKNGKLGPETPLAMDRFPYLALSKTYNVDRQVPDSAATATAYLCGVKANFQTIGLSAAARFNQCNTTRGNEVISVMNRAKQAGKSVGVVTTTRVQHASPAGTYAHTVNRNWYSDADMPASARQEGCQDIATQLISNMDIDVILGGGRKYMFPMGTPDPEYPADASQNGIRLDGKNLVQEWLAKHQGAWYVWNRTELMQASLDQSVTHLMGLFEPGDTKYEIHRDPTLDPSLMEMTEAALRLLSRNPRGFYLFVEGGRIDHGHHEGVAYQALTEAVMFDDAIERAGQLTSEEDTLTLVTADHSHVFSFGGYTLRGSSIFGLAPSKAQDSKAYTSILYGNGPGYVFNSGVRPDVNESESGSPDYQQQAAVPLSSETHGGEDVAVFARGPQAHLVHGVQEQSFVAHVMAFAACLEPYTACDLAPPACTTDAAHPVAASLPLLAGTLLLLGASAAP
The target of assay [10] is E3 ubiquitin-protein ligase XIAP (Homo sapiens, UniProt P98170). Briefly: Counter Screen using XIAP-Bir3 for Chemical Antagonists of Bir1/2 domains of IAP-family anti-apoptotic proteins. [Related pubchem assays (depositor defined):AID1018, AID1449, AID1514, AID1638, AID1749, AID1750, AID488957, AID488963].
E3 ubiquitin-protein ligase XIAP, sequence (P98170 whole entry): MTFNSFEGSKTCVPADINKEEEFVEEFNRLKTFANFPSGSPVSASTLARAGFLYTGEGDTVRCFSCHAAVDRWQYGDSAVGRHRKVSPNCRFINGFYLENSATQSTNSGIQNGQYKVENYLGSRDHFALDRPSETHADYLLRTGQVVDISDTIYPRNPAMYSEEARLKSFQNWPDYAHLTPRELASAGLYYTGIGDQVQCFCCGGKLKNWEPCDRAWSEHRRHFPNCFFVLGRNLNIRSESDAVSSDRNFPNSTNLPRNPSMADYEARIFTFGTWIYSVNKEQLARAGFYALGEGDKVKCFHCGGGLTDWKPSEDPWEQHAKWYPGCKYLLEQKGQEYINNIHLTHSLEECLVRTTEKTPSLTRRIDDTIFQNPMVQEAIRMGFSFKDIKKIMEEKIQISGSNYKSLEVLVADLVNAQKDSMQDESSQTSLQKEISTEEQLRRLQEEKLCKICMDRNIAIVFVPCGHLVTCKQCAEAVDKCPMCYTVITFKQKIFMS
In assay [11] the target is T4, Estrogen receptor (Homo sapiens, UniProt P03372).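 Note: potency for inhibiting coactivator peptide recruitment to the receptor.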
T4 sequence (P03372 whole entry): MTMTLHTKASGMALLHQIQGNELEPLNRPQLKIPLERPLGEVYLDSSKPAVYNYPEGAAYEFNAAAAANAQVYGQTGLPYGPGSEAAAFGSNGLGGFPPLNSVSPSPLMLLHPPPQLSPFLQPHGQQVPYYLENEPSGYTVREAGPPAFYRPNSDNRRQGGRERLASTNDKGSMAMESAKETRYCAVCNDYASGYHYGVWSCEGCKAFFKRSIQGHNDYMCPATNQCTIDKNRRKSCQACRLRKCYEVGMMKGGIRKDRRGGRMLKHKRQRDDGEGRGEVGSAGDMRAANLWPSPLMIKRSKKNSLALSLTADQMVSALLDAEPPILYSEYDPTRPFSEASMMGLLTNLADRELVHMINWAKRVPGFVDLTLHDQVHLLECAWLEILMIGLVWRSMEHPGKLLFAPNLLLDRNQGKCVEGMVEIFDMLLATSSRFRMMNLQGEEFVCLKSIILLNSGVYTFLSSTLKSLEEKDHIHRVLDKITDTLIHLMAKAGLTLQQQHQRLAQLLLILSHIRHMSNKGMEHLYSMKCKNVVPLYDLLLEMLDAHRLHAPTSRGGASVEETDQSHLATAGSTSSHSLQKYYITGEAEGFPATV

Assay [12] is described as follows: cytotoxicity toward NIH3T3 fibroblasts, dose response, counter-screen, cell-based, ATP luminescence, mouse fibroblasts (AID 2010).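 Note: cells exposed to compound for about 90 hours before reading.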 The assay is classed as functional.
A short description of assay [13]: inhibitors of intracellular T. cruzi replication, confirmation, NIH3T3 host cells, beta-gal luminescence (AID 2044).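 Note: intracellular parasites grown in NIH/3T3 mouse fibroblasts as host cells; luminescent beta-galactosidase reporter signal from transgenic T. cruzi replicating inside host cells; inhibitors lower the luminescence signal.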 The assay is classed as functional, cell-based.

Intestinal-type alkaline phosphatase (Mus musculus, UniProt P24822), sequence (P24822 whole entry): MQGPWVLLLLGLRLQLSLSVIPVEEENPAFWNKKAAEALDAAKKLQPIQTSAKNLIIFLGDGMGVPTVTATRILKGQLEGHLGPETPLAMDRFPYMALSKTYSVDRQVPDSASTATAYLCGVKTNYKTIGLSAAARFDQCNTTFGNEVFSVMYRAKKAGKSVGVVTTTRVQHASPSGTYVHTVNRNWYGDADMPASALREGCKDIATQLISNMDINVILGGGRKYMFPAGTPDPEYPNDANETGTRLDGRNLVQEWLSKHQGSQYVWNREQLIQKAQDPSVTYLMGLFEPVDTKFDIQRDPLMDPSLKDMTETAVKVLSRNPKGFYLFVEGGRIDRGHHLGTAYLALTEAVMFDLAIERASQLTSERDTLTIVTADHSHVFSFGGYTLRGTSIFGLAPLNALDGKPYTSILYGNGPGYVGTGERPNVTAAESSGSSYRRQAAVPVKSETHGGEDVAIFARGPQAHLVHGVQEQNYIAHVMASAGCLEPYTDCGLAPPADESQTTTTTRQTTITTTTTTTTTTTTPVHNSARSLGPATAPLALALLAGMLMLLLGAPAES

Turning to `Cn1c(/N=C/c2cc(Cl)ccc2O)nc2ccccc21`, in assay [1], the AC50 (in general, the concentration at which the activity in the assay is half-maximal) is 10.4 µM (active).
On to `C[C@H]1CCC[C@]2(C)C[C@H]3OC(=O)C(CN4CCCCCC4)[C@H]3C=C12` (stereo partly specified), for which the AC50 in assay [2] is 13.9 µM (active).
Consider `Nc1c(Cl)ncnc1NCc1cccnc1`, for which, in [1], the AC50 is 5.63 µM (active).
Turning to `Cc1cc(C)c2c(N)c(C(=O)Nc3ncc(C)s3)sc2n1`, the values for the AC50 in assay [3], in assay [2] and in assay [4] were 36.7 µM (active), 1.09 µM (active) and 2.92 µM (active), respectively. The EC50 (commonly the concentration at which the effect is half-maximal) in assay [5] was > 50 µM (not active); in assay [6], < 200 nM (active).
For `O=C(CCNS(=O)(=O)c1ccc2[nH]c(=O)oc2c1)Nc1ccccc1`, the IC50 (in general, the concentration needed to halve the response being measured) in assay [7] was 17.8 µM (active); in assay [8], 2.4 µM (active); in assay [9], 26.9 µM (active).
Regarding `O=C(NCc1ccc(Cl)cc1)c1cc(-c2cccs2)on1`, the IC50 in [10] is > 20 µM (inactive); in [11] it was > 50 µM (not active).
For the molecule `CCOC(=O)c1nnn(-c2ccc([N+](=O)[O-])cc2[N+](=O)[O-])c1C`, the EC50 in assay [12] was > 60 µM (not active); in [13], 647 nM (active). Moreover, the AC50 in assay [2] was 8.85 µM (active).
